In brackets after ≈: the same amount, converted by molar mass. Several values for one entry are separate records, joined by “and”; a condition that tells them apart may be missing. Equal entries are not always repeated. Blank lines part the entries; values can stand above or below the molecule they belong to.
How the values were obtained:
[1] = test system: human triple negative breast cancer cells (MDA-MB-231); test: MTT cell proliferation assay, MDA-MB-231; assay type: cell-based
Description: (§1) Anticancer activity of crude extracts were evaluated against four cell lines, human triple negative breast cancer cells (MDA-MB-231), estrogen positive breast cancer cells (MCF-7), human neuroblastoma cells (IMR-32) and human colon cancer cells (HCT-116) that were procured from NCCS-Pune using 3-(4,5-Dimethylthiazol-2-Yl)-2,5-Diphenyltetrazolium Bromide (MTT) assay.
(§2) In vitro cytotoxic activity of all the extracts was determined by MTT assay as described by Manikandan et al. (2017) with slight modification. After trypsinization, viable cells were counted by trypan blue exclusion in a hemocytometer and diluted with the medium.
(§3) The cells were seeded in 96 well plate at a density of 1-2×10^4 cells per well. The plate was incubated at 37° C. in a 5% CO2 atmosphere. The following day media was removed and the cells were treated with standard, doxorubicin (0.1-4 μg/ml) or plant extract at different concentrations (100-500 μg/ml). The extract was initially dissolved in 1:1 ratio of ethanol-ethyl acetate mixture and further diluted in medium to get the required concentrations. As plant extracts were dissolved in ethyl acetate and as ethyl acetate is not miscible with cell culture media, a mixture of ethanol-ethyl acetate in a ratio of 1:1 is used for all the cell culture experiments. The final mixture used for treating the cells contained not more than 0.5% of the ethanol-ethyl acetate mixture. Negative controls were treated with the same percentage of ethanol-ethyl acetate mixture.
(§4) The treated plate was incubated at 37° C. in a humidified incubator with 5% CO2 for 24 h. After the incubation period, the media was removed, 100 μl of 0.1 mg/ml MTT reagent was added and incubated at 37° C. in a humidified incubator with 5% CO2 for 1 h till purple MTT formazan crystals were visible under the microscope. The formazan crystals were dissolved by adding 100 μl DMSO and spectrophotometric readings were taken at 540 nm.
(§5) The cytotoxic activity of standard or plant extract was calculated as the percentage of cell growth inhibition by using the following formula.
(§6) Where Acontrol indicates the absorbance of control containing 0.5% ethanol-ethyl acetate mixture. Asample is the absorbance of treated cells at different concentrations. IC50 values (the concentration of sample required for inhibition of 50% of cell growth) were obtained from the regression line.
Further, the most polar band from all the fractions was combined and termed as fraction 29. All the compounds separated along with crude diethyl ether extract were analyzed for their anticancer potential against MDA-MB-231 cells at a concentration of 300 μg/ml using MTT assay as described above. Cytotoxic activity was expressed as percentage inhibition of cells at 300 μg/ml.
(§7) The anticancer potential of the anticancer compound against MDA-MB-231, MCF-7, IMR-32 and HCT-116 cells was evaluated at different concentrations (40, 80, 120, 160 and 200 μg/ml) and different incubation times (24 h, 48 h, 72 h) using MTT assay by the method described above.

[2] = test system: estrogen positive breast cancer cells (MCF-7); test: MTT cell proliferation assay, MCF-7; assay type: cell-based; details: Homo sapiens
Description: as §1, §2, §3, §4, §5, §6, §7

[3] = test system: human neuroblastoma cells (IMR-32); test: MTT cell proliferation assay, IMR-32; assay type: cell-based
Description: as §1, §2, §3, §4, §5, §6, §7

[4] = test system: human colon cancer cells (HCT-116); test: MTT cell proliferation assay, HCT-116; assay type: cell-based
Description: as §1, §2, §3, §4, §5, §6, §7

[5] = test system: human peripheral blood lymphocytes; test: Trypan blue exclusion assay, lymphocyte viability; assay type: cell-based
Description: In order to know the side effects associated with the treatment of anticancer compound, the effect of the anticancer compound on the viability of human peripheral blood lymphocytes was determined using trypan blue exclusion assay. Along with the viability of lymphocytes, the viability of different cancer cells at that particular concentration and incubation time are shown in Table 6.

[6] = test system: MDA-MB-231 cells; test: Gene expression by PCR relative to β-actin, MDA-MB-231; assay type: cell-based, human; details: MDA-MB-231, 96 μg/ml, 72 h
Description: (§8) FIG. 7. Detection of genes by PCR. Lane 1: MDA-MB-231 control cells; lane 2: MDA-MB-231 cells treated with anticancer compound (96 μg/ml) for 72 h; lane 3: IMR-32 control cells; lane 4: IMR-32 cells treated with anticancer compound (87 μg/ml) for 72 h; control cells are treated with 0.2% of ethanol-ethyl acetate mixture at 1:1 ratio.
(§9) Genetic level changes associated with the treatment of anticancer compound in MDA-MB-231 and IMR-32 cells were studied by isolating the RNA, reverse transcribing the RNA to cDNA, amplifying the genes using specific primers. The resulting bands were analyzed using image J and the expression of each gene was represented as relative gene expression using the β-actin gene as a control.

[7] = test system: IMR-32 cells; test: Gene expression by PCR relative to β-actin, IMR-32; assay type: cell-based, human; details: IMR-32, 87 μg/ml, 72 h
Description: as §8, §9

[8] = test system: MDA-MB-231; test: Cell cycle progression, MDA-MB-231; assay type: cell-based, human
[9] = test system: IMR-32 cells; test: Cell cycle progression, IMR-32; assay type: cell-based, human
[10] = test system: lymphocytes; details: 1 μg/ml, 24 h; cited from earlier work

IC50 ([1]; MDA-MB-231, 24 h): 199.2 ± 0.5 µg/mL (≈ 590 µM)
IC50 ([1]; MDA-MB-231, 48 h): 99.1 ± 1.6 µg/mL (≈ 294 µM)
IC50 ([1]; MDA-MB-231, 72 h): 96.2 ± 1.75 µg/mL (≈ 285 µM)
IC50 ([2]; MCF7, 24 h): 243 µg/mL (≈ 719 µM)
IC50 ([2]; MCF7, 48 h): 183 ± 6.29 µg/mL (≈ 543 µM)
IC50 ([2]; MCF7, 72 h): 155 ± 5.24 µg/mL (≈ 458 µM)
IC50 ([3]; IMR-32, 24 h): 224 ± 7.21 µg/mL (≈ 663 µM)
IC50 ([3]; IMR-32, 48 h): 165.2 ± 0.87 µg/mL (≈ 489 µM)
IC50 ([3]; IMR-32, 72 h): 87.8 µg/mL (≈ 260 µM)
IC50 ([4]; HCT-116, 24 h): 179 ± 6.12 µg/mL (≈ 531 µM)
IC50 ([4]; HCT-116, 48 h): 162 ± 5.02 µg/mL (≈ 478 µM)
IC50 ([4]; HCT-116, 72 h): 159 µg/mL (≈ 470 µM)
SMILES: Cc1cnc(-c2ccc(CCCCCCCC(C)C)cc2)c(C)c1C [Compound 16, 3,4,5-trimethyl-2-(4-(8-methylnonyl)phenyl)pyridine]
viability at 300 µg/mL ([1]; MDA-MB-231, 300 μg/ml, 72 h, read-out: Viability percentage MDA-MB-231): 0%
viability at 350 µg/mL ([1]; MDA-MB-231, 350 μg/ml, 48 h, read-out: Viability percentage MDA-MB-231): 0%
viability at 400 µg/mL ([1]; MDA-MB-231, 400 μg/ml, 24 h, read-out: Viability percentage MDA-MB-231): 0%
inhibition at 300 µg/mL ([1]; MDA-MB-231 cells, 300 μg/ml, read-out: Percentage Inhibition): 94.54 ± 0.59%
viability at 300 µg/mL ([2]; MCF7, 300 μg/ml, 72 h, read-out: Viability percentage MCF-7): 0%
viability at 350 µg/mL ([2]; MCF7, 350 μg/ml, 48 h, read-out: Viability percentage MCF-7): 0%
viability at 400 µg/mL ([2]; MCF7, 400 μg/ml, 24 h, read-out: Viability percentage MCF-7): 0%
viability at 300 µg/mL ([3]; IMR-32, 300 μg/ml, 72 h, read-out: Viability percentage IMR-32): 0%
viability at 350 µg/mL ([3]; IMR-32, 350 μg/ml, 48 h, read-out: Viability percentage IMR-32): 0%
viability at 400 µg/mL ([3]; IMR-32, 400 μg/ml, 24 h, read-out: Viability percentage IMR-32): 0%
viability at 300 µg/mL ([4]; HCT-116, 300 μg/ml, 72 h, read-out: Viability percentage HCT-116): 3.29 ± 3.15%
viability at 350 µg/mL ([4]; HCT-116, 350 μg/ml, 48 h, read-out: Viability percentage HCT-116): 0%
viability at 400 µg/mL ([4]; HCT-116, 400 μg/ml, 24 h, read-out: Viability percentage HCT-116): 0%
Viability percentage Lymphocytes ([5]; 300 μg/ml, 72 h, listed as anticancer compound): 74.94% and 74.94 ± 1.50%
Viability percentage Lymphocytes ([5]; 350 μg/ml, 48 h): 82.11 ± 1.42%
Viability percentage Lymphocytes ([5]; 400 μg/ml, 24 h, listed as anticancer compound): 91.04% and 90.40 ± 4.02%
Bcl-2 gene expression vs control [6]: reduced expression levels
IKK-β gene expression vs control [6]: almost similar in treated and control cells
Nrf2 gene expression vs control [6]: downregulation
caspase-3 gene expression vs control [6]: upregulation
p53 gene expression vs control [6]: reduced
Bcl-2 gene expression vs control [7]: no change in the expression levels
IKK-β gene expression vs control [7]: downregulation
Nrf2 gene expression vs control [7]: reduced expression level
caspase-3 gene expression vs control [7]: upregulation
p53 gene expression vs control [7]: reduced
phase at which cell cycle progression is inhibited [8]: G2/M phase
phase at which cell cycle progression is inhibited [9]: G1 phase

IC50 ([1]; MDA-MB-231, crude extracts 100-500 μg/ml, doxorubicin 0.1-4 μg/ml, 24 h): 0.83 ± 0.03 µg/mL (≈ 1.53 µM)
IC50 ([2]; MCF7, crude extracts 100-500 μg/ml, doxorubicin 0.1-4 μg/ml, 24 h): 0.66 ± 0.04 µg/mL (≈ 1.21 µM)
IC50 ([3]; IMR-32, crude extracts 100-500 μg/ml, doxorubicin 0.1-4 μg/ml, 24 h): 0.5 µg/mL (≈ 0.92 µM)
IC50 ([4]; HCT-116, crude extracts 100-500 μg/ml, doxorubicin 0.1-4 μg/ml, 24 h): 0.4 µg/mL (≈ 0.736 µM)
SMILES: COc1cccc2c1C(=O)c1c(O)c3c(c(O)c1C2=O)C[C@@](O)(C(=O)CO)C[C@@H]3O[C@H]1C[C@H](N)[C@H](O)[C@H](C)O1 [Doxorubicin, doxorubicin, reference compound]
lymphocyte viability [10]: 65%
